Source: PubChem BioAssay (NCI)
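Compound exposure: 48 hours, 5 concentrations, 96-well plates. GI50 = concentration required for 50% inhibition of growth. TGI: total growth inhibition.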

Columns and labels:
Assay in all cases: DTP human tumour cell line panel, 48 h
[1] = system: EKVX NSCLC
[2] = system: HCC-2998 colon
[3] = system: HS 578T breast
[4] = system: HT29 colon
[5] = system: NCI-H226 lung
[6] = system: NCI-H23 lung
[7] = system: SF-268 CNS
[8] = system: TK-10 renal
[9] = system: UACC-257 melanoma
[10] = system: UACC-62 melanoma

SMILES | GI50 [1] [µM] | TGI [1] [µM] | GI50 [2] [µM] | TGI [2] [µM] | GI50 [3] [µM] | TGI [3] [µM] | GI50 [4] [µM] | TGI [4] [µM] | GI50 [5] [µM] | TGI [5] [µM] | GI50 [6] [µM] | TGI [6] [µM] | GI50 [7] [µM] | TGI [7] [µM] | GI50 [8] [µM] | TGI [8] [µM] | GI50 [9] [µM] | TGI [9] [µM] | GI50 [10] [µM] | TGI [10] [µM]
O=C(Nc1cc(F)c(F)cc1C(=O)O)c1ccc(-n2ccnc2)nn1 | > 100 | > 100 | > 100 | > 100 | > 100 | > 100 | > 100 | > 100 | > 100 | > 100 | > 100 | > 100 | > 100 | > 100 | > 100 | > 100 | > 100 | > 100 | > 100 | > 100
Fc1ccc(-c2nn3ccccc3c2-c2ccncc2)cc1 | > 20.2 | > 25 | > 25 | > 25 | > 25 | > 25 | 14 | > 25 | > 25 | > 25 | > 25 | > 25 | > 25 | > 25 | 12 | > 25 | > 25 | > 25 | > 18.9 | > 25
c1ccc(Oc2ccc(Nc3ncc(-c4ccccc4)o3)cc2)cc1 | > 25 | > 25 | > 25 | > 25 | > 25 | > 25 | > 25 | > 25 | > 25 | > 25 | > 25 | > 25 | > 25 | > 25 | > 25 | > 25 | > 25 | > 25 | > 25 | > 25
CS(=O)(=O)c1cccc(Nc2ncc3cc(-c4ccccc4Cl)ccc3n2)c1 | 1.37 | > 33.3 | 2.8 | > 33.3 | 1.23 | 10.3 | 1.01 | 19.1 | 2.55 | 21.5 | 1.98 | > 33.3 | 1.35 | > 33.3 | 1.9 | 17.3 | 3.24 | 19.3 | 1.17 | 5.74
Nc1ncc(-c2ccc3ncnc(N4CCc5ccc(Cl)cc54)c3c2)cc1C(F)(F)F | 0.507 | 18.7 | 3.43 | > 100 | 0.326 | 3.05 | 1.83 | 16.2 | 3.04 | 24.1 | 3.79 | 29.4 | 1.13 | 24.7 | 1.36 | 11 | 2.86 | 20.9 | 0.965 | 11.1
O=C(Nc1ccccc1)OC1OC(COC(=O)c2ccccc2)C(OC(=O)c2ccccc2)C1OS(=O)(=O)c1ccc([N+](=O)[O-])cc1 (configuration not stated) | – | > 100 | – | > 100 | – | > 100 | – | > 100 | – | > 100 | – | > 100 | – | > 100 | – | > 100 | – | > 100 | – | > 100
COc1ccccc1/C=C\C(=O)C1COCN1 (configuration not stated) | – | 42.6 | – | – | – | 50.9 | – | 30.6 | – | 39.7 | – | > 100 | – | 64.4 | – | 50.8 | – | 34 | – | 31.9
CCN1C(=O)N(CC)C2C1NN=c1s/c(=C3\C(=O)N(C4CCCC4)c4ccccc43)c(=O)n12 (configuration not stated) | 3.36 | > 100 | 1.65 | 5.19 | 1.01 | 8.77 | 0.695 | > 100 | 1.47 | 5.54 | 2.49 | 13.5 | 2.38 | 27.6 | 2.78 | 9.89 | – | – | 0.465 | 36
OC1CCCC2CCC[N-]C12.OC1CCCC2CCC[N-]C12.[O]=[V][OH] (configuration not stated) | 3.62 | 22.8 | 12.7 | > 100 | 21.2 | > 100 | 4.72 | > 100 | 42 | > 100 | 7.22 | 52.6 | 4.04 | > 100 | 44.9 | > 100 | 4.05 | > 100 | 3.98 | 24.7
O=C(Nc1cc(Cl)ccc1O)c1ccccc1Nc1ccnc(C(F)(F)F)c1 | 2.92 | 10.4 | 3 | 7.41 | 2.42 | 8.54 | 3.27 | 11.5 | 2.11 | 9.17 | 2.63 | 9.19 | 3.13 | 13.2 | 4.72 | 16.8 | 2.85 | 8.5 | 2.51 | 10
O=C1Cc2cc(CCn3cncn3)c(Cl)cc2N1 | 0.825 | > 100 | > 100 | > 100 | 0.72 | > 100 | > 100 | > 100 | > 100 | > 100 | > 100 | > 100 | 59.6 | > 100 | > 100 | > 100 | 7.14 | > 100 | 20.7 | > 100
O=C(Nc1cc(Cl)ccc1O)c1cccc(Nc2ccnc(C(F)(F)F)c2)c1 | 2.43 | 10.7 | 5.01 | 17.1 | 8.27 | 41.2 | 11.1 | 31.8 | 4.84 | 39.5 | 0.771 | 7.74 | 7.35 | 22.8 | 4.51 | 19.8 | 4.63 | 16.7 | 0.901 | 11.9
